The values that follow come from patent US20220213030A1, “AMINOGUANIDINE HYDRAZONES AS RETROMER STABILIZERS USEFUL FOR TREATING NEUROLOGICAL DISEASES” (OSPEDALE SAN RAFFAELE SRL, priority 2019, published 2022).

“Also recorded” adds a separate entry of the source.

In one series the test system is LC3. The series is described as follows: pHfluorin-LC3 autophagy assay in Neuro2a clone 7B11. In kind it is cell-based, mouse. The following applies: BafilomycinA1 200 nM, Torin-1 250 nM, 48 hours. Here is the method:
Besides increasing the functionality of lysosomes we hypothesised that compound 2a could also enhance the autophagy system. Therefore we used a pHfluorin-LC3-based assay to monitor the autophagy process in living Neuro2a cells. We have established in our laboratory a Neuro2a stable cell clone (7B11) that expresses the Microtubule-associated protein 1A/1B-light chain 3 (LC3) coupled with the ph-sensitive GFP/phlourin.
Neuro2a-7B11 cells were incubated with increasing concentrations of compound 2a (0.1-100 μM) as well as with the control molecules Bafilomycin Al and Torin-1. After 48 hours the GFP/phluorin signal, which is ph-sensitive, was measured by flow cytometry and fold changes calculated over untreated cells.
Autophagy assay were done using a stable Neuro2a cell clone expressing the pHluorin-mKate2-tagged human LC3 plasmids, Cell clones were generated according our published methods (Mazzocchi 2016). Upon transfection, cells were selected by 400 μg/mL G418 Disulfate Salt Solution (Sigma-Aldrich, St. Louis, Mo.) and further cloned by limiting dilution. […] Neuro2a 7B11 cells were treated with Compound 2a (0.1-100 μM) for 48 hours then MFI levels of the pHfluorin were measured in living cells by flow cytometry.

The target of series [1] is T1, VPS35 (Mus musculus, UniProt Q9EQH3+Q9QZ88). The series is described as follows: VPS35 levels in spinal cord extracts of C57BL6J mice by western blot. In kind it is in vivo. The following applies: 10 mg/kg daily intraperitoneal for 7 days. The arrangement: Lumbar spinal cords were dissected from saline perfused mice and rapidly homogenized; from tissue; host or cells: lumbar spinal cord of mice. Here is the method: We next asked whether the compound 2a can cross the blood brain barrier (BBB) of the brain. We run a pharmacokinetic assay on C57BL6J mice that received daily intraperitoneal injections of compound 2a (10 mg/Kg/day). Mice were sacrificed after 1, 7, 15 and 30 days saline perfused to avoid the CNS contamination of compounds contained in blood circulation and brains used for the determination of compound 2a levels by mass spectrometry. […] We next investigated in vivo if the retromer stabilization occurs in response to Compound 2a treatment. We intraperitoneally injected R55 and Compound 2a in adult C57BL6J mice as above described. After one week, mice were sacrificed, proteins extracts were assayed by western blot.
Lumbar spinal cords were dissected from saline perfused mice and rapidly homogenized in the following lysis buffer: Tris-HCl 10 mM pH 8, EDTA pH 8 1 mM, NaCl 100 mM, NP40 1% and protease inhibitor cocktail (Sigma). Protein extracts were obtained using a tight-fitting glass Potter tissue grinder (1 ml; Wheaton) and then sonicated at a frequency of 20 kHz (10 times-1s). […] Protein concentrations were measured by BCA protein assay kit (Thermofisher) according to the manufacturer's recommendations. […] Quantifications were done using the Image Lab 6.0.1 software (Bio-Rad).
In general terms: In western blotting, separated proteins are transferred to a membrane and probed.

Series [2] concerns the target VPS35 (Homo sapiens, UniProt Q96QK1+Q9UBQ0). The arrangement: host or cells: neuronal cultures. The following applies: neuronal cultures; cited from earlier work.
Another series relates to Aβ40. The following applies: wild type and APP-mutated hippocampal neurons; cited from earlier work.
For another series, the system named is VPS26. The following applies: neuronal cultures; cited from earlier work.
A further series concerns neuronal cultures. The following applies: cited from earlier work.
In series [3] the target is T1, VPS35. In words: VPS35 levels in Neuro2a cells by Western blot (screening of amino guanidine hydrazones). In kind it is cell-based. The arrangement: endogenous in cells; host or cells: Neuro2a. The following applies: 48 hours; for VPS35 levels (in words): compounds at 10 μM; for Mean fold changes (VPS35 levels normalized on β-Actin, over vehicle-treated cells): 10 μM, independent cultures n=3. How it is done: To functionally screen the majority of synthetized amino guanidine hydrazones of the invention and determine their effects on the retromer complex, we incubated Neuro2a cells with each synthetized molecule at the concentration of 10 μM.
The test was executed in triplicate for each tested compound of the invention, cells lysates were established after 48 hours' incubation, and levels of VPS35 were normalized on the housekeeping gene β-Actin by Western blot. We observed a preliminary SAR among the compounds.
Fold changes are calculated over normalized VPS35 levels measured in vehicle-treated cells.
Neuro2a cells were seeded on 12 wells multiwell at the concentration of 100 000 cells/well. Cells were incubated with each compound, including the standard R55, at 10 μM for 48 hours. Cells were then washed in PBS 1× and lysed in a buffer containing Tris-HCl 10 mM pH8, EDTA 1 mM pH8, NaCl 100 mM, NP40 1%, with protease inhibitor cocktail (Sigma) 1×. Using a cell scraper total lysates were collected from each well, quantified with BCA (BCA protein assay, Thermofisher). Five μg were resolved on precast 10% acrylamide gel (Biorad). Proteins were transferred to a PVDF membrane (Millipore) and western blot were performed using the following antibodies: goat αVPS35 (1:1000), mouse α-βActin (1:10000). Detection of proteins was obtained by a chemiluminescence detection kit (PerkinElmer).

The next series relates to Aβ42. The following applies: wild type and APP-mutated hippocampal neurons; cited from earlier work.
The target in the next series is CMC (Homo sapiens, UniProt Q96QK1+Q9UBQ0). The following applies: in vitro; cited from earlier work.
The subject of series [4] is Neuro2a cells receiving H2O2. The series is described as follows: H2O2-induced cell death in Neuro2a cells. The following applies: compound 10 μM, H2O2 200 μM, 48 hours. In kind it is cell-based, mouse. How it is done:
We tested the specificity of compound 2a in an assay based on H2O2-induced chromosomal breaks that lead to DNA fragmentation and cell death. In principle such DNA lesions are the cause of cell death according to a process that is not influenced by the retromer. Thus, our leads should not be able to modulate rates cell survival in Neuro2a cells receiving H2O2. We incubated Neuro2a cells with 200 μM of H2O2 along with compounds 2a, 2c, 2d and 2g (10 μM).
Cell survival experiments were run on 96-well plates using Cell Counting Kit-8 (CCK8) survival kit (96992-Sigma) according the manufacturer's recommendations. Compound 2a cytotoxicity was tested on Neuro2a cells receiving increasing amount of compound 2a (1, 10, 50, 100, 200, 500 and 1000 μM) for 48 hours.

The next series concerns G93A mice. The following applies: mouse, in vivo; cited from earlier work.
In a further series the test system is TNFα. The series is described as follows: LPS-mediated TNFα release in Raw 264.7 cells (ELISA). In kind it is cell-based, murine. The following applies: 10 μM for 1 hour, then LPS 100 ng/ml, 4 hours. The source says: We observed that the molecular structure featuring compound 2a is reminiscent of the patented compound CNI-1493 (N,N′-bis [3,5 -bis [1(aminoiminomethyl) hydrazono]ethyl]phenyl]decanediamide tetrahydrochloride (CAS Reg. No. 164301-51-3)), (FIG. 16A). CNI-1493 inhibits macrophage activation in the animal model of Multiple Sclerosis producing a general amelioration of clinical and pathological outcomes of these mice (Martiney, Rajan et al. 1998). […] CNI-1493 suppresses the production of pro-inflammatory cytokines, belonging to the plethora of detrimental signals that accompany neurodegenerative processes in several disorders. […] We followed experimental procedures published by Bianchi and colleagues that describe the ability of CNI-1493 to blunt the production of this cytokine (Bianchi, Bloom et al. 1996). Cells were incubated with CNI-1493 (10 μM) or with compound 2a (10 μM) for 1 hour and then we added the LPS (100 ng/ml) to media. We next collected supernatants (4 hours after the LPS stimulation) form cells for the evaluation of TNFα levels.
Raw 264.7 cells (10^5/well) were treated with compound 2a, CNI-1493 or vehicle for 1 hour then we applied LPS (100 ng/ml) and supernatants were collected after 4 hours. […] Concentrations of TNFα were calculated according to a standard curve and expressed as nanograms per […]. […]

The subject of series [5] is TNFα, IL-1(3, IL-6 and macrophage inflammatory proteins 1α and 1β). The following applies: cited from earlier work.

With `CCC(=O)N1CCN(c2ccc(-n3c(=O)ccc4cnc5ccc(-c6cnc7ccccc7c6)cc5c43)cc2C(F)(F)F)CC1` [Torin 1, reference compound], in the series on LC3, the “GFP/phluorin fluorescence, control molecules” value was “significantly dampened”.
In the case of `N=C(N)SCc1ccc(CSC(=N)N)s1` [Compound R55], the “VPS35 levels in SC extracts (ratio versus vehicle-treated mice)” value on VPS35 [1] is reported as “did not increase VPS35 levels”. Further, the VPS35 levels result at VPS35 [2] is on record as “≈ 180%”. In the series with Aβ40, the “reduction of Aβ40 levels” value was “up to 44%”. Besides, in the series with VPS26, the VPS26 levels entry is “≈ 150%”. The “not toxic up to (concentration)” value in the series with neuronal cultures is on record as “up to 50 μM”. Besides, the “VPS35 levels (in words)” value at VPS35 [3] was “efficiently and dose-dependently increased VPS35 levels”. Moreover, the “reduction of Aβ42 levels” value in the series on Aβ42 is “up to 39%”. For the same compound, the “increase in denaturation temperature” value at CMC was “≈ 10 °C”.
As to `CO/C1=C\C(C)=C\[C@@H](C)[C@@H](O)[C@@H](C)C/C(C)=C/C=C/[C@H](OC)[C@@H]([C@@H](C)[C@@H](O)[C@H](C)[C@@]2(O)C[C@@H](O)[C@H](C)[C@@H](C(C)C)O2)OC1=O` [Bafilomycin A1, reference compound], the “GFP/phluorin fluorescence, control molecules” value in the series on LC3 is given as “augmented fluorescence”.
On to `Cc1cc(C=NNC(=N)N)cc(C=NNC(=N)N)c1` [Compound 2g, 5-Methyl-1,3-bis-aminoguanidine phenyl hydrazone], for which the “cell survival with H2O2 with or without compound” value in series [4] is reported as “did not result in any significant difference”. Besides, the “Mean fold changes (VPS35 levels normalized on β-Actin, over vehicle-treated cells)” value on VPS35 [3] came out at 2.080.
In the case of `N=C(N)NN=Cc1ccc(O)c(C=NNC(=N)N)c1` [Compound 2d, 1-Hydroxy-2,4-bis-aminoguanidine phenyl hydrazone], the “cell survival with H2O2 with or without compound” value in series [4] is recorded as “did not result in any significant difference”. The “Mean fold changes (VPS35 levels normalized on β-Actin, over vehicle-treated cells)” value on VPS35 [3] is 2.477.
On to `N=C(N)NN=Cc1ccc(Br)c(C=NNC(=N)N)c1` [Compound 2c, 4-Bromo-1,3-bis-amino guanidine phenyl hydrazone], for which the “cell survival with H2O2 with or without compound” value in [4] is given as “did not result in any significant difference”. In addition, the “Mean fold changes (VPS35 levels normalized on β-Actin, over vehicle-treated cells)” value on VPS35 [3] came to 1.617.
Consider `C/C(=N\N=C(N)N)c1cc(NC(=O)CCCCCCCCC(=O)Nc2cc(/C(C)=N/N=C(N)N)cc(/C(C)=N/N=C(N)N)c2)cc(/C(C)=N/N=C(N)N)c1.Cl.Cl.Cl.Cl` [CNI-1493, reference compound], for which the “onset of the disease and lifespan” value in the series with G93A mice was “delayed the onset of the disease and increased the lifespan of mice”. Besides, in the series with TNFα, the “TNFα levels in supernatants” value is given as “significantly inhibited the expression of this cytokine; also recorded: significantly blunted TNFα expression”. In addition, in [5], the “expression of pro-inflammatory cytokines” value was “inhibits the expression”. Moreover, the “VPS35 levels (in words)” value on VPS35 [3] is given as “did not increased”; at VPS35 [3] (listed as CNI-1494) it was “does not modulate VPS35”.
